Test results: patent publication US6794379B2, “CXCR3 antagonists” (Tularik Inc., priority 2001, dated 2004)
Where a name gives a salt, the structure may show the parent alone.

Row | melting point | Compound
1 | 150.6 °C | CCOCCN(C(=O)Cc1ccc(-c2ccccc2)cc1)C(C)c1nc2ccccc2c(=O)n1-c1ccc(F)cc1 (stereo not drawn) [Compound 1.19]
2 | 167 °C | CC(c1nc2ccccc2c(=O)n1-c1ccc(F)cc1)N(Cc1cccnc1)C(=O)Cc1ccc(C(F)(F)F)cc1 (racemic)
3 | 153.8 °C | COCCN(C(=O)Cc1ccc(-c2ccccc2)cc1)C(C)c1nc2ccccc2c(=O)n1-c1ccc(F)cc1 (stereo not drawn) [Compound 1.17]
4 | 75.5 °C | CCOc1ccc(-n2c(C(C)N(Cc3cccnc3)C(=O)Cc3ccc(F)c(F)c3)nc3ccccc3c2=O)cc1 (stereo not drawn) [Compound 3.34]
5 | 61.3 °C | COc1ccc(-n2c(C(C)N(CCN(C)C)C(=O)Cc3ccc(OCc4ccccc4)cc3)nc3ccccc3c2=O)cc1 (stereo not drawn) [Compound 1.36]
6 | 167.5 °C | CCOc1ccc(-n2c(C(C)N(Cc3ccccn3)C(=O)Cc3ccc(C(F)(F)F)cc3)nc3ccccc3c2=O)cc1 (stereo not drawn) (as salt: hydrochloride) [Compound 3.04, 2-((N-2-Picolyl)-N-(4-trifluoromethylphenylacetyl)-1-aminoethyl)-3-(4-ethoxyphenyl) -3H-quinazoline-4-one]
7 | 153 °C | CC(c1nc2ccccc2c(=O)n1-c1ccc(F)cc1)N(CCN(C)C)C(=O)Cc1ccccc1 (stereo not drawn)
8 | 146 to 148 °C | CCOCCN(C(=O)Cc1ccc(C(F)(F)F)c(F)c1)[C@H](C)c1nc2ccccc2c(=O)n1-c1ccc(OCC)cc1 [Compound 3.27]
9 | 146.3 °C | CCOCCN(C(=O)Cc1ccc(F)c(F)c1F)C(C)c1nc2ccccc2c(=O)n1-c1ccc(OCC)cc1 (stereo not drawn) [Compound 3.32]
10 | 57 to 60 °C | CCOCCN(C(=O)Cc1cc(C(F)(F)F)cc(C(F)(F)F)c1)[C@H](C)c1nc2ccccc2c(=O)n1-c1ccc(OCC)cc1 [Compound 3.25]
11 | 73.3 °C | C#Cc1ccc(-n2c(C(C)N(CCOC)C(=O)Cc3ccc(-c4ccccc4)cc3)nc3ccccc3c2=O)cc1 (stereo not drawn) [Compound 3.12, 2-((N-2-Methoxyethyl)-N-(4-phenylphenylacetyl)-1-aminoethyl)-3-(4-ethynylphenyl) -3H-quinazoline-4-one]
12 | 173 to 174 °C | C[C@H](c1nc2ccccc2c(=O)n1-c1ccc(F)cc1)N(Cc1nccs1)C(=O)Cc1ccc(C(F)(F)F)cc1
13 | 167.9 °C | C[C@H](c1nc2ccccc2c(=O)n1-c1ccc(F)cc1)N(CCOCC(F)(F)F)C(=O)Cc1ccc(-c2ccccc2)cc1 [Compound 9.03]
14 | 156.2 °C | C[C@H](c1nc2ccccc2c(=O)n1-c1ccc(F)cc1)N(CCOCC(F)(F)F)C(=O)Cc1ccc(C(F)(F)F)cc1 [Compound 9.04]
15 | 188.3 °C | Cc1ccc(CC(=O)N(CCN(C)C)C(C)c2nc3ccccc3c(=O)n2-c2ccc(F)cc2)cc1 (stereo not drawn)
16 | 98.1 °C | CCOCCN(C(=O)Cc1ccc(-c2ccccc2)cc1)C(C)c1nc2ccccc2c(=O)n1-c1ccc(OCC)cc1 (stereo not drawn)
17 | 220 to 221 °C | CC(=O)CN(C(=O)Cc1ccc(C(F)(F)F)cc1)[C@H](C)c1nc2ccccc2c(=O)n1-c1ccc(F)cc1 [Compound 3.22]
18 | 137 to 138 °C | CCOCCN(C(=O)Cc1ccc(F)c(C(F)(F)F)c1)[C@H](C)c1nc2ccccc2c(=O)n1-c1ccc(OCC)cc1 [Compound 3.26]
19 | 153 °C | CCOCCN(C(=O)Cc1ccc(OC(F)(F)F)cc1)C(C)c1nc2ccccc2c(=O)n1-c1ccc(OCC)cc1 (stereo not drawn) [Compound 3.30]
20 | 96.9 °C | COc1ccc(-n2c(C(C)N(CCN3CCCC3)C(=O)Cc3ccc(-c4ccccc4)cc3)nc3ccccc3c2=O)cc1F (stereo not drawn) [Compound 1.33]
21 | 157.9 °C | CCOCCN(C(=O)Cc1cccc(C(F)(F)F)c1)C(C)c1nc2ccccc2c(=O)n1-c1ccc(OCC)cc1 (stereo not drawn) [Compound 9.08]
22 | 116.3 °C | COc1ccc(-n2c(C(C)N(CCN3CCCC3)C(=O)Cc3ccc(-c4ccccc4)cc3)nc3ccccc3c2=O)cc1 (stereo not drawn) [Compound 1.34]
23 | 147.3 °C | CC(c1nc2ccccc2c(=O)n1-c1ccc(F)cc1)N(CCN(C)C)C(=O)c1ccc(-c2ccccc2)cc1 (stereo not drawn) [Compound 1.06]
24 | 103 to 104 °C | CCOc1ccc(-n2c([C@@H](C)N(Cc3cccnc3)C(=O)Cc3ccc(OCC(F)(F)F)cc3)nc3ccccc3c2=O)cc1 [Compound 3.28]
